Measured values reported in patent US4446047A, “Pleochroic anthraquinone dyes” (Imperial Chemical Industries PLC, priority 1981, dated 1984).

What was measured:
[1] = prior-art symmetrical dyes; cited from earlier work
[2] = prior-art symmetrical dyes; cited from earlier work; remark: listed apart in the source
[3] = prior-art symmetrical dyes; cited from earlier work; remark: listed apart in the source
[4] = Solubility in other liquid crystal media (hosts) / liquid crystal materials; format: physicochemical
Experimental: (§1) The properties of some of the dyes described in the Examples were also measured in other liquid crystal media (hosts) at 20° C., unless otherwise stated, and the results are set out in Table 5.
(§2) The liquid crystal materials referred to in Table 5 as Hosts 1 to 12 have the following compositions:
(§3) Host 1 is the liquid crystal material E7, available from BDH Chemicals Ltd, which includes the compounds:
(§4) Host 2 is the liquid crystal material ZLI 1132, available from E Merck & Co, which includes the following compounds:
(§5) Host 3 is the liquid crystal material ZLI 1695, available from E Merck & Co, Darmstadt, West Germany. This has a clearing point (nematic to isotropic transition temperature) of 72° C.
(§6) Host 4 is a mixture of alkyl-cyanophenyl-dioxanes containing n-propyl, n-pentyl and n-heptyl chains.
(§7) Host 5 is the liquid crystal material ZLI 1565, available from E Merck & Co. This has a clearing point of 85° C.
(§8) Host 6 is the liquid crystal material ZLI 1624, available from E Merck & Co. This has a clearing point of 87° C.
(§9) Host 8 is the liquid crystal material RO-TN 430 available from Hoffmann La Roche Co. This has a clearing point of 69° C.
(§10) Host 9 is a mixed bicyclo-octane liquid crystal material containing the following compounds:
(§11) Host 10 is a mixture of liquid crystal materials based mainly on cyanobiphenyls and available from BDH Chemicals Ltd under the name E61.
(§12) Host 11 is a mixture of liquid crystal materials based mainly on cyanobiphenyls and available from BDH Chemicals Ltd under the name E49.
(§13) Host 12 is a mixture of fluorobicyclo(2,2,2)octane esters having negative anisotropy and containing a mixture of two compounds of the following formula: […]

[5] = Molar extinction coefficient of the dye in liquid crystal material; format: physicochemical
Text: Solubility is, however, only one of the factors affecting the achievement of good contrast in a liquid crystal display, another factor is the extinction coefficient of the dye in the liquid crystal material. One useful indication of the ability of a dye to give good contrast is the product of the molar extinction coefficient and the solubility (in moles/liter).

[6] = Order parameter in liquid crystal medium E43; format: physicochemical; details: E43, 20° C., Table 4
Experimental: (§14) In order to provide maximum contrast between the two states it is important that the guest molecules adopt as closely as possible the time averaged orientation of the host, however this is achieved only to a limited degree because of random thermal fluctuations. The degree to which the orientation varies from the ideal is measured by a quantity known as the order parameter S which is given by the following equation: […]
where cos^2 θ is a time averaged term and θ is the instantaneous angular orientation of the molecules with respect to the time averaged orientation of the host molecules.

[7] = Order parameter in other liquid crystal media (hosts) / liquid crystal materials; format: physicochemical; details: 20° C.
Experimental: as §14
where cos^2 θ is a time averaged term and θ is the instantaneous angular orientation of the molecules with respect to the time averaged orientation of the host molecules. The determination of the value of the order parameter S is well understood in the art, see for example the paper, "A new absorptive mode reflective liquid crystal display device", by D. L. White and G. N. Taylor in the Journal of Applied Physics, 1974, 45, pages […] to 4723.
as §1, §2, §3, §4, §5, §6, §7, §8, §9, §10, §11, §12, §13

[8] = Absorption maximum in liquid crystal medium E43; format: physicochemical; details: E43, 20° C., Table 4
Text: Detection was by means of a u.v. source (254 nm) and samples, corresponding to all the peaks in the chromatogram, were collected.

O=C1c2cccc(Sc3ccccc3)c2C(=O)c2cccc(Sc3ccccc3)c21 [1,5-bis(phenylthio)anthraquinone]
stability (in words) [1]: adequate | order parameters (in words) [2]: high | solubility in the liquid crystal materials (in words) [3]: insufficient for practical purposes

CC(C)(C)c1ccc(Sc2cccc3c2C(=O)c2cccc(Sc4ccccc4)c2C3=O)cc1 [Example 11, 1-phenylthio-5-(4-t-butylphenylthio)anthraquinone]
Solubility ([4]; Host 2 (ZLI 1132), 20° C.): 4.0% | Solubility ([4]; Host 3 (ZLI 1695), 20° C.): 2.5% | Solubility ([4]; Host 10 (E61), -2° C.): 4.0% | Solubility ([4]; Host 11 (E49), 20° C.): > 5.0% | Solubility ([4]; Host 11 (E49), -2° C.): 4.4% | Solubility ([4]; Host 12 (fluorobicyclo(2,2,2)octane esters), 20° C.): 2.0% | molar extinction coefficient [5]: 11,000 cm^2.moles^-1 | Order Parameter [6]: 0.79 | Order Parameter ([7]; Host 1 (E7)): 0.73 | Order Parameter ([7]; Host 2 (ZLI 1132)): 0.79 | Order Parameter ([7]; Host 3 (ZLI 1695)): 0.81 | Order Parameter ([7]; Host 4 (alkyl-cyanophenyl-dioxanes mixture)): 0.74 | Order Parameter ([7]; Host 9 (mixed bicyclo-octane)): 0.81 | Order Parameter ([7]; Host 10 (E61)): 0.78 | Order Parameter ([7]; Host 11 (E49)): 0.78 | Order Parameter ([7]; Host 12 (fluorobicyclo(2,2,2)octane esters)): 0.77 | λmax [8]: 464 nm
